Test results from ChEMBL document CHEMBL1151037, “Synthesis of a chemiluminescent probe useful for the purification of steroid 5-reductase” (Bioorg Med Chem Lett, 1996).
pIC50: −log10 of the molar value.

Molecular target: T1, 3-oxo-5-alpha-steroid 4-dehydrogenase 1 (Rattus norvegicus, UniProt P24008)
T1 sequence (P24008 whole entry): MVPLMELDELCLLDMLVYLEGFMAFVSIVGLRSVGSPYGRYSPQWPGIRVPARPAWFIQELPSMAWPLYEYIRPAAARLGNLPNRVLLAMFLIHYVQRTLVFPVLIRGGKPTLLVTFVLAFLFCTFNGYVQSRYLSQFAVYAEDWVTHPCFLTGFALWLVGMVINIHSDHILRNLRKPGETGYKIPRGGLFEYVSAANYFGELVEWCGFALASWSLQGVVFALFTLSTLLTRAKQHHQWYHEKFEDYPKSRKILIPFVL
Assay: Compound was tested for its inhibitory potency against rat Steroid 5-alpha-reductase type 1 expressed in transformed yeast Saccharomyces cerevisiae

SMILES | pIC50
CCN(CCCCNC(=O)[C@H]1CCC2C3CCC4NC(=O)C=C[C@]4(C)C3CC[C@@]21C)c1ccc2c(=O)[nH][nH]c(=O)c2c1 (some centres not stated) | 6.30
CC(C)(C)NC(=O)[C@H]1CC[C@H]2[C@@H]3CC[C@H]4NC(=O)C=C[C@]4(C)[C@H]3CC[C@]12C [FINASTERIDE] | 4.40
